Source: ChEMBL document CHEMBL1137266, “4-Aminoquinoline melanin-concentrating hormone 1-receptor (MCH1R) antagonists” (Bioorg Med Chem Lett, 2006)

Columns and labels:
[1] = target: T1, Melanin-concentrating hormone receptor 2 (Homo sapiens, UniProt Q969V1); test: Inhibition of 125I-[Phe13,Tyr19]-MCH binding to human MCH-R2 at 2uM
[2] = target: T2, Melanin-concentrating hormone receptor 1 (Homo sapiens, UniProt Q99705); test: Displacement of 125I-[Phe13,Tyr19]-MCH from human MCH-R1
[3] = target: T2, Melanin-concentrating hormone receptor 1; test: Stimulation of IP3-coupled mobilization of calcium in HEK293 cells expressing MCH-R1; assay type: functional, cell-based
[4] = target: T2, Melanin-concentrating hormone receptor 1; test: Inhibition of 125I-[Phe13,Tyr19]-MCH binding to human MCH-R1; details: concentration not given here
[5] = target: T1, Melanin-concentrating hormone receptor 2; test: Displacement of 125I-[Phe13,Tyr19]-MCH from human MCH-R2

T2 sequence (Q99705 whole entry): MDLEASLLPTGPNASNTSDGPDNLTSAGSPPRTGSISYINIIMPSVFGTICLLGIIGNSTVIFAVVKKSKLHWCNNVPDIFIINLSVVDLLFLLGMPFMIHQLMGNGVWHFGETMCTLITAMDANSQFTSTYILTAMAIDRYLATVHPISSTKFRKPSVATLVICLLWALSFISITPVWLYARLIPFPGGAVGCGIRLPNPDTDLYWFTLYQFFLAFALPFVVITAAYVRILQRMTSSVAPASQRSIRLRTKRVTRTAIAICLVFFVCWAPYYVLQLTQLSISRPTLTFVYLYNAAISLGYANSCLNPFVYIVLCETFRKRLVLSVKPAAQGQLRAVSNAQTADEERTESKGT
T1 sequence (Q969V1 whole entry): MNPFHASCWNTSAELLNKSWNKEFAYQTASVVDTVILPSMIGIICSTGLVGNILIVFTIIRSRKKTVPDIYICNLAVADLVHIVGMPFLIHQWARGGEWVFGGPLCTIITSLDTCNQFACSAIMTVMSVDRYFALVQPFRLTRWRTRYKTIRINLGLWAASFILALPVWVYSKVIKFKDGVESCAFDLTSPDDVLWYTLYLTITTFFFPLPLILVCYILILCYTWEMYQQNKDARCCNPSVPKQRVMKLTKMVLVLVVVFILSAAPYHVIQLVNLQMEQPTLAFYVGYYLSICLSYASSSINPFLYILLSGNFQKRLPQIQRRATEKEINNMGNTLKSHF

inhibition [1] [%]	IC50 [2] [nM]	EC50 [3] [nM]	inhibition [4] [%]	IC50 [5] [nM]	SMILES
< 50	–	–	< 50	–	CCCc1cc(O)c2cc(NC(=O)/C=C/c3ccc(C(F)(F)F)cc3)ccc2n1
< 50	–	–	–	–	CCCc1cc(N)c2cc(NC(=O)/C=C/c3ccc(C(F)(F)F)cc3)ccc2n1 (stereo in doubt; form 2) [listing 1 of 2 here]
< 50	4.8	340	–	–	CCCc1cc(NCC)c2cc(NC(=O)/C=C/c3ccc(C(F)(F)F)cc3)ccc2n1
< 50	43	300	–	–	CCCc1cc(N(C)C)c2cc(NC(=O)/C=C/c3ccc(C(F)(F)F)cc3)ccc2n1
–	1.3	60	–	–	CCCc1cc(N)c2cc(NC(=O)/C=C/c3ccc(C(F)(F)F)cc3)ccc2n1 (stereo in doubt; form 3) [listing 1 of 2 here]
< 50	1.5	210	–	–	CCCCc1cc(N)c2cc(NC(=O)/C=C/c3ccc(C(F)(F)F)cc3)ccc2n1
< 50	0.3	29	–	–	CC(C)(C)c1cc(N)c2cc(NC(=O)/C=C/c3ccc(C(F)(F)F)cc3)ccc2n1
–	1.3	61	–	–	CCCc1cc(N)c2cc(NC(=O)/C=C/c3ccc(C(F)(F)F)cc3)ccc2n1 (stereo in doubt; form 1) [listing 1 of 2 here]
< 50	1.5	150	–	–	CCCc1cc(NC)c2cc(NC(=O)/C=C/c3ccc(C(F)(F)F)cc3)ccc2n1
< 50	0.8	68	–	–	Nc1cc(C2CCCC2)nc2ccc(NC(=O)/C=C/c3ccc(C(F)(F)F)cc3)cc12
< 50	2	250	–	–	Nc1cc(C2CCC2)nc2ccc(NC(=O)/C=C/c3ccc(C(F)(F)F)cc3)cc12
< 50	1.2	110	–	–	CCc1cc(N)c2cc(NC(=O)/C=C/c3ccc(C(F)(F)F)cc3)ccc2n1
< 50	40	–	–	–	CCCc1cc(NC2CC2)c2cc(NC(=O)/C=C/c3ccc(C(F)(F)F)cc3)ccc2n1
< 50	5.8	110	–	–	CC(C)(C)Cc1cc(N)c2cc(NC(=O)/C=C/c3ccc(C(F)(F)F)cc3)ccc2n1
–	18	270	–	960	CCCc1cc(NC2CCC2)c2cc(NC(=O)/C=C/c3ccc(C(F)(F)F)cc3)ccc2n1
–	2	40	–	–	CCCc1cc(N)c2cc(NC(=O)/C=C/c3ccc(C(F)(F)F)cc3)ccc2n1 (stereo in doubt; form 2) [listing 2 of 2 here]
< 50	1100	–	–	–	CCCc1cc(N(CC)CC)c2cc(NC(=O)/C=C/c3ccc(C(F)(F)F)cc3)ccc2n1
< 50	0.3	44	–	–	CCC(C)c1cc(N)c2cc(NC(=O)/C=C/c3ccc(C(F)(F)F)cc3)ccc2n1 (stereo not drawn)
< 50	22	910	–	–	CCCc1cc(N)c2cc(NC(=O)/C=C/c3ccc(C(C)(C)C)cc3)ccc2n1
< 50	9	71	–	–	CCCc1cc(N)c2cc(NC(=O)/C=C/c3ccc(C)cc3)ccc2n1
< 50	130	200	–	–	CCCc1cc(N)c2cc(NC(=O)/C=C/c3ccc(F)cc3)ccc2n1
< 50	–	–	–	–	CCCc1cc(N)c2cc(NC(=O)/C=C/c3ccc(C(F)(F)F)cc3)ccc2n1 (stereo in doubt; form 3) [listing 2 of 2 here]
< 50	2.8	2500	–	–	CCCc1cc(N2CCC2)c2cc(NC(=O)/C=C/c3ccc(C(F)(F)F)cc3)ccc2n1
< 50	2.1	160	–	–	CC(C)c1cc(N)c2cc(NC(=O)/C=C/c3ccc(C(F)(F)F)cc3)ccc2n1
< 50	1.2	96	–	–	Nc1cc(C2CCCCC2)nc2ccc(NC(=O)/C=C/c3ccc(C(F)(F)F)cc3)cc12
< 50	8	140	–	–	Cc1cc(N)c2cc(NC(=O)/C=C/c3ccc(C(F)(F)F)cc3)ccc2n1
< 50	26	360	–	–	CCCc1cc(OC)c2cc(NC(=O)/C=C/c3ccc(C(F)(F)F)cc3)ccc2n1
< 50	–	–	–	–	CCCc1cc(N)c2cc(NC(=O)/C=C/c3ccc(C(F)(F)F)cc3)ccc2n1 (stereo in doubt; form 1) [listing 2 of 2 here]
< 50	1.2	90	–	–	CCCCCc1cc(N)c2cc(NC(=O)/C=C/c3ccc(C(F)(F)F)cc3)ccc2n1

The remaining lines, values behind:

SMILES	inhibition [1] [%]	IC50 [2] [nM]	EC50 [3] [nM]	inhibition [4] [%]	IC50 [5] [nM]
CCCc1cc(N)c2cc(NC(=O)/C=C/c3ccc(I)cc3)ccc2n1	< 50	2.3	280	–	–
CCCc1cc(N)c2cc(NC(=O)/C=C/c3ccc(Cl)c(Cl)c3)ccc2n1	< 50	60	990	–	–
CCCc1cc(N)c2cc(NC(=O)/C=C/c3ccc(O)cc3)ccc2n1	< 50	1100	–	–	–
CCCc1cc(N)c2cc(NC(=O)/C=C/c3ccc(OC(C)=O)cc3)ccc2n1	< 50	95	630	–	–
CCCc1cc(N)c2cc(NC(=O)/C=C/c3ccc([N+](=O)[O-])cc3)ccc2n1	< 50	20	310	–	–
CCCc1cc(N2CCCC2)c2cc(NC(=O)/C=C/c3ccc(C(F)(F)F)cc3)ccc2n1	< 50	17	2800	–	–
CCCc1cc(N)c2cc(NC(=O)/C=C/c3ccc(SC)cc3)ccc2n1	< 50	9	71	–	–
CCCc1cc(N)c2cc(NC(=O)/C=C/c3ccc(-c4ccccc4)cc3)ccc2n1	< 50	1.1	118	–	–
CCCc1cc(N)c2cc(NC(=O)/C=C/c3ccc(Cl)cc3)ccc2n1	< 50	6	96	–	–
CCCc1cc(N)c2cc(N(C)C(=O)CCc3ccc(C(F)(F)F)cc3)ccc2n1	< 50	1700	–	–	–
CCCc1cc(N)c2cc(NC(=O)/C=C/c3ccc(CC)cc3)ccc2n1	< 50	1.4	160	–	–
CCCc1cc(N)c2cc(NC(=O)/C=C/c3ccc(Br)cc3)ccc2n1	< 50	4	93	–	–
CCCc1cc(N)c2cc(NC(=O)Cc3ccc(C(F)(F)F)cc3)ccc2n1	< 50	4000	–	–	–
CCCc1cc(N)c2cc(NCCCc3ccc(C(F)(F)F)cc3)ccc2n1	< 50	180	1000	–	–
CCCCc1ccc(/C=C/C(=O)Nc2ccc3nc(CCC)cc(N)c3c2)cc1	< 50	45	740	–	–
CCCc1cc(N)c2cc(NC(=O)c3ccc(-c4ccc(Cl)cc4)cc3)ccc2n1	< 50	0.7	75	–	–
CCCc1cc(N2CCCCC2)c2cc(NC(=O)/C=C/c3ccc(C(F)(F)F)cc3)ccc2n1	< 50	> 4000	–	–	–

SMILES	inhibition [1] [%]	IC50 [2] [nM]	EC50 [3] [nM]	inhibition [4] [%]	IC50 [5] [nM]
CCCc1cc(N)c2cc(NC(=O)c3ccccc3)ccc2n1	< 50	–	–	< 50	–
Nc1cc(-c2ccccc2)nc2ccc(NC(=O)/C=C/c3ccc(Cl)cc3)cc12	< 50	18.5	6600	–	–
CCCc1cc(N)c2cc(NC(=O)CCc3ccccc3)ccc2n1	< 50	8300	–	–	–
CCCc1cc(N)c2cc(NC(=O)NCc3ccc(C(F)(F)F)cc3)ccc2n1	< 50	38	380	–	–
CCCc1ccc(/C=C/C(=O)Nc2ccc3nc(CCC)cc(N)c3c2)cc1	< 50	4	3600	–	–
CCCc1cc(N)c2cc(NC(=O)c3ccc(-c4ccc(C(F)(F)F)cc4)cc3)ccc2n1	< 50	4.5	310	–	–
CCCc1cc(N)c2cc(NC(=O)/C=C/c3ccc(N)cc3)ccc2n1	< 50	190	–	–	–
CCCc1cc(N)c2cc(NC(=O)CCc3ccc(C(F)(F)F)cc3)ccc2n1	< 50	13	120	–	–
CCCc1cc(N)c2cc(NC(=O)/C=C/c3ccccc3Cl)ccc2n1	< 50	120	500	–	–
CCCc1cc(N)c2cc(NC(=O)/C=C/c3cccc(Cl)c3)ccc2n1	< 50	1100	–	–	–
CCCc1cc(N)c2cc(NC(=O)/C=C/c3ccc(Cl)cc3Cl)ccc2n1	< 50	6.6	904	–	–
CCCc1cc(N)c2cc(NC(=O)/C=C/c3ccccc3)ccc2n1	< 50	1000	–	–	–
CCCc1cc(N)c2cc(NC(=O)C3CCC(c4ccc(Cl)cc4)CC3)ccc2n1 (stereo not drawn)	< 50	4.4	370	–	–
CCCc1cc(N)c2cc(NC(=O)/C=C/c3ccc(C(C)C)cc3)ccc2n1	< 50	2.9	520	–	–
CCCc1cc(N)c2cc(C(=O)NCCc3ccc(C(F)(F)F)cc3)ccc2n1	< 50	2700	–	–	–
CCCc1cc(N)c2cc(NC(=O)c3ccc(C(F)(F)F)cc3)ccc2n1	< 50	10000	–	–	–
